Experimental data as given in patent US9695155B2, “Herbicidal substituted pyrimidinyloxy benzene compounds” (E. I. DU PONT DE NEMOURS AND COMPANY, priority 2013, dated 2017).

Key:
[1] = system: ducksalad; test: Test C flooded paddy test; type: in vivo, Heteranthera limosa; settings: Flood, scale 0 to 100 (0 no effect, 100 complete control), 13 to 15 days
How it was run: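 In-water treatment: compound dosed into 3 cm flood over soil, water level unchanged throughout. Controls run alongside; visual assessment at day 13–15.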

[2] = system: soybean; test: Test E preemergence; type: in vivo, Glycine max; settings: scale 0 to 100 (0 no effect, 100 complete control)
How it was run: (§1)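 Test chemicals formulated in a non-phytotoxic solvent mixture containing a surfactant were applied preemergence to seeds in silt loam soil or postemergence to plants at the 1- to 4-leaf stage in potting mix. After 14 to 21 days in a greenhouse, injury was visually rated against controls on a 0-100 scale (0 = no effect, 100 = complete control).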

[3] = system: velvetleaf; test: Test E preemergence; type: in vivo, Abutilon theophrasti; settings: scale 0 to 100 (0 no effect, 100 complete control)
How it was run: as §1

[4] = system: wild poinsettia; test: Test E preemergence; type: in vivo, Euphorbia heterophylla; settings: scale 0 to 100 (0 no effect, 100 complete control)
How it was run: as §1

[5] = system: palmer pigweed; test: Test E preemergence; type: in vivo, Amaranthus palmeri; settings: scale 0 to 100 (0 no effect, 100 complete control)
How it was run: as §1

[6] = system: waterhemp; test: Test E preemergence; type: in vivo, Amaranthus rudis; settings: scale 0 to 100 (0 no effect, 100 complete control)
How it was run: as §1

[7] = system: surinam grass; test: Test E preemergence; type: in vivo, Brachiaria decumbens; settings: scale 0 to 100 (0 no effect, 100 complete control)
How it was run: as §1

[8] = system: Brazilian crabgrass; test: Test E preemergence; type: in vivo, Digitaria horizontalis; settings: scale 0 to 100 (0 no effect, 100 complete control)
How it was run: as §1

[9] = system: fall panicum; test: Test E preemergence; type: in vivo, Panicum dichotomiflorum; settings: scale 0 to 100 (0 no effect, 100 complete control)
How it was run: as §1

[10] = system: green foxtail; test: Test E preemergence; type: in vivo, Setaria viridis; settings: scale 0 to 100 (0 no effect, 100 complete control)
How it was run: as §1

[11] = system: ragweed; test: Test E preemergence; type: in vivo, Ambrosia elatior; settings: scale 0 to 100 (0 no effect, 100 complete control)
How it was run: as §1

[12] = system: sandbur; test: Test E preemergence; type: in vivo, Cenchrus echinatus; settings: scale 0 to 100 (0 no effect, 100 complete control)
How it was run: as §1

[13] = system: nightshade; test: Test E preemergence; type: in vivo, Solanum ptycanthum; settings: scale 0 to 100 (0 no effect, 100 complete control)
How it was run: as §1

[14] = system: kochia; test: Test E preemergence; type: in vivo, Kochia scoparia; settings: scale 0 to 100 (0 no effect, 100 complete control)
How it was run: as §1

[15] = system: hairy beggarticks; test: Test E preemergence; type: in vivo, Bidens pilosa; settings: preemergence, scale 0 to 100 (0 no effect, 100 complete control)
How it was run: as §1

SMILES: FC(F)c1cccc(Oc2ncc(Cl)cn2)c1-n1cc(Br)cn1 [Compound 194, 2-[2-(4-bromo-1H-pyrazol-1-yl)-3-(difluoromethyl)phenoxy]-5-chloropyrimidine]
- Plant response rating, Ducksalad ([1]; 31 g ai/ha): 65
- Plant response rating, Ducksalad ([1]; 62 g ai/ha): 80
- Plant response rating, Ducksalad ([1]; 125 g ai/ha): 90
- Plant response rating, Ducksalad ([1]; 250 g ai/ha): 100
- Soybean plant response rating ([2]; 31 g ai/ha): 0
- Soybean plant response rating ([2]; 62 g ai/ha): 20
- Velvetleaf plant response rating ([3]; 31 g ai/ha): 5
- Velvetleaf plant response rating ([3]; 62 g ai/ha): 25
- Poinsettia, Wild plant response rating ([4]; 31 g ai/ha): 10
- Poinsettia, Wild plant response rating ([4]; 62 g ai/ha): 0
- Pigweed, Palmer plant response rating ([5]; 31 g ai/ha): 98
- Pigweed, Palmer plant response rating ([5]; 62 g ai/ha): 100
- Waterhemp plant response rating ([6]; 31 g ai/ha): 98
- Waterhemp plant response rating ([6]; 62 g ai/ha): 100
- Surinam Grass plant response rating ([7]; 31 g ai/ha): 0
- Surinam Grass plant response rating ([7]; 62 g ai/ha): 0
- Crabgrass, Brazil plant response rating ([8]; 31 g ai/ha): 65
- Crabgrass, Brazil plant response rating ([8]; 62 g ai/ha): 98
- Panicum, Fall plant response rating ([9]; 31 g ai/ha): 80
- Panicum, Fall plant response rating ([9]; 62 g ai/ha): 100
- Foxtail, Green plant response rating ([10]; 31 g ai/ha): 35
- Foxtail, Green plant response rating ([10]; 62 g ai/ha): 80
- Ragweed plant response rating ([11]; 31 g ai/ha): 0
- Ragweed plant response rating ([11]; 62 g ai/ha): 20
- Sandbur plant response rating ([12]; 31 g ai/ha): 20
- Sandbur plant response rating ([12]; 62 g ai/ha): 20
- Nightshade plant response rating ([13]; 31 g ai/ha): 95
- Nightshade plant response rating ([13]; 62 g ai/ha): 95
- Kochia plant response rating ([14]; 31 g ai/ha): 5
- Kochia plant response rating ([14]; 62 g ai/ha): 35
- Beggarticks plant response rating ([15]; 31 g ai/ha): 0
- Beggarticks plant response rating ([15]; 62 g ai/ha): 0
